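Each compound was tested at five concentrations against cells in 96-well plates for 48 hours. TGI: concentration producing complete growth inhibition.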 Where a SMILES comes first, the peptide text is derived from it. [ ]: non-standard residue; d: D form. The star is where a group is joined. ξ: configuration not given here. ξF = NC(Cc1ccccc1)C(=O)O; Cbz = O=C(OCc1ccccc1)*

One test relates to MOLT-4 leukemia. Briefly: NCI anticancer screen, dose series, 48 h.
`Cc1cccc2sc(NC(=O)NS(=O)(=O)n3cnc4ccccc43)nc12` yielded a TGI of 88 µM.
As to `NNc1nnc(CCCCCCCCc2nnc(NN)n2N)n1N`, the TGI was > 100 µM.
On the same count and under the same terms, for `COc1ccc2nc3c(c(N)c2c1)C1CCC3C1(C)C` (stereo not given) the value was > 100 µM; for `Oc1c(N2CCCCC2)cc(-c2cc(N3CCCCC3)c(O)c3ccccc23)c2ccccc12`, 79.8 µM.
Consider `C[C@H]1CC[C@@]2(OC1)O[C@H]1C[C@H]3[C@@H]4CC[C@@H]5C[C@@H](OC6OC(CO)C(O)C(O)C6OC6OC(CO)C(O)C(O)C6O)CC[C@]5(C)[C@H]4CC[C@]3(C)[C@H]1[C@@H]2C` (stereo not given in full), for which the TGI was determined as 3.79 µM.
Turning to `O=C(NCCC1CNc2ccccc21)OCc1ccccc1` (stereo not given), the TGI was > 100 µM.
On to `CSc1nncc(-c2cc3c(c(SC)n2)CCCC3)n1`, for which the TGI is > 100 µM.
The same measure, in the same setting: under `Cc1nc2sc3cccc(Cl)c3n2c(=O)c1N=Nc1ccc(Cl)cc1` stands > 100 µM; under `Cn1c2ccccc2c(=O)c2c(O)cc3c(c21)C1OCC(C)(O)C1O3` (stereo not given), > 100 µM; under `Cc1cc(N(CCC#N)CCC#N)ccc1/C(N=Nc1ccccc1)=N\NC(=O)c1cc(Cl)ccc1O`, 92.6 µM.
On to `Cn1c(CNc2ccc(-c3n[nH]c(=S)n3C)cc2)n[nH]c1=S`, for which the TGI is > 100 µM.
Same read-out and setting: under `Cc1ccc(N=N/C(=N/NC(=O)c2ccccc2)c2ccc(N(CCC#N)CCC#N)cc2C)cc1` stands > 100 µM; under `Cc1ccc(S[C@@](C=O)(NC(=O)OCc2ccccc2)C(F)(F)F)cc1`, 52 µM; under `COc1ccc(CCCCNCc2cccc(CNCCCCc3ccc(OC)cc3)c2)cc1`, 6.86 µM.
Consider `CC(SC(=S)N1CCOCC1)C(=O)Nc1nnc(-c2ccc(Cl)cc2)o1` (stereo not given), for which the TGI was > 100 µM.
Consider `CCOC(=O)CNC(=O)C(Cc1ccccc1)NC(=O)OCc1ccccc1` (stereo not given) (Cbz-[ξF]-Gly-OEt), for which the TGI is > 100 µM.
Regarding `CC1(C)O[C@@H]2[C@@H](COC(C)(C)O[C@H]2C2SCCCS2)O1`, the TGI is > 100 µM.
In the case of `N#Cc1sc2nc3ccccc3n2c1N`, the TGI is > 100 µM.
In turn, `O=C(O)CCCc1ccc2c(c1)CC1(C2)Cc2cc3c(cc2C1)CCCC3` displayed a TGI of 5.4 µM.
The same measure, in the same setting: under `Cc1c(C)c2c(c(N)c1C#N)C(=O)N(Cc1ccc(S(N)(=O)=O)cc1)C2=O` stands > 100 µM.
Take `CN(NC1=NCCO1)c1ccc2ccccc2c1`: the TGI is > 100 µM.
`COC(=O)/C=C/c1ccc(OP(=O)(O)O)c(OC)c1`: the TGI is > 100 µM.
On the same count and under the same terms, for `Cc1cc(O)c(/C=N/C(N)=S)c(=O)o1` the value was > 100 µM; for `Cc1[nH]n(-c2nc3c(c(=O)[nH]2)CCCC3)c(=O)c1CCO`, > 100 µM.
On the same count and under the same terms, under `COC(=O)/C=C(\C(=O)OC)c1cc(C)c2cc(C(C)C)ccc(C)c1-2` stands > 100 µM.
Turning to `CC(C)(C)OC(=O)N(CCCCNC(=O)C(F)(F)F)CCCNC(=O)C(F)(F)F`, the TGI was > 100 µM.
For the compound `O=c1c(-c2ccccc2)nnc2n(Cc3ccccc3)c3ccccc3n12`, the TGI was > 100 µM.
In the case of `C=CCON(C(=O)OC(C)(C)C)C(C)(C)C`, the TGI is > 100 µM.

Another test relates to MDA-N. Nature of the test: NCI anticancer screen, dose series, 48 h.
`COC1(OC)CCc2c(sc3ncnc(Nc4cccc(Br)c4)c23)C1`: the TGI is > 100 µM.
As for `C=CCC(CCC(C)=O)(C(=O)OCC)C(=O)OCC`, the TGI is > 100 µM.
Take `CC(C)C(Cl)CCC(C)(Cl)C(=O)CBr` (stereo not given): the TGI came out at 7.25 µM.
`Clc1ccc(C=Nc2ccc(Oc3ccc(Cl)cc3)c(Cl)c2)cc1` gave a TGI of 38.8 µM.
With `CCOC(=O)c1cn(CC)c(=O)n2c1nc1ccccc12`, the TGI was > 100 µM.
As for `O=[N+]([O-])c1ccc(/C=N/Nc2nc3ccccc3[nH]2)o1`, the TGI is 31.7 µM.
In the case of `Cc1cccc2sc(NC(=O)NS(=O)(=O)n3cnc4ccccc43)nc12`, the TGI is > 100 µM.
Still for that read-out and setting: for `NNc1nnc(CCCCCCCCc2nnc(NN)n2N)n1N` the value was > 100 µM; for `Oc1c(N2CCCCC2)cc(-c2cc(N3CCCCC3)c(O)c3ccccc23)c2ccccc12`, 33.5 µM; for `O=C(NCCC1CNc2ccccc21)OCc1ccccc1` (stereo not given), > 100 µM.
As to `CCN1/C(=C/C#C/C(C)=C\c2sc3ccc(Cl)cc3[n+]2CC)Sc2ccc(Cl)cc21`, the TGI was determined as 12.9 µM.
Take `CSc1nncc(-c2cc3c(c(SC)n2)CCCC3)n1`: the TGI was > 100 µM.
On to `Cc1nc2sc3cccc(Cl)c3n2c(=O)c1N=Nc1ccc(Cl)cc1`, for which the TGI is > 100 µM.
Turning to `Cn1c2ccccc2c(=O)c2c(O)cc3c(c21)C1OCC(C)(O)C1O3` (stereo not given), the TGI is > 100 µM.
Regarding `Cc1cc(N(CCC#N)CCC#N)ccc1/C(N=Nc1ccccc1)=N\NC(=O)c1cc(Cl)ccc1O`, the TGI is > 100 µM.
For the compound `COC(=O)[C@@H]1CO[C@H](C(C)(C)C)N1C(=O)N1C=CC(=O)C[C@H]1C`, the TGI was > 100 µM.
Take `Cn1c(CNc2ccc(-c3n[nH]c(=S)n3C)cc2)n[nH]c1=S`: the TGI is > 100 µM.
On the same count and under the same terms, for `Cc1ccc(N=N/C(=N/NC(=O)c2ccccc2)c2ccc(N(CCC#N)CCC#N)cc2C)cc1` the value was > 100 µM.
Take `Cc1ccc(S[C@@](C=O)(NC(=O)OCc2ccccc2)C(F)(F)F)cc1`: the TGI turned out to be 58.5 µM.
Regarding `COc1ccc(CCCCNCc2cccc(CNCCCCc3ccc(OC)cc3)c2)cc1`, the TGI came to 4.25 µM.
In the case of `CCOC(=O)CNC(=O)C(Cc1ccccc1)NC(=O)OCc1ccccc1` (stereo not given) (Cbz-[ξF]-Gly-OEt), the TGI is > 100 µM.
As to `CC1(C)O[C@@H]2[C@@H](COC(C)(C)O[C@H]2C2SCCCS2)O1`, the TGI is > 100 µM.
For `N#Cc1sc2nc3ccccc3n2c1N`, the TGI was > 100 µM.
Consider `O=C(O)CCCc1ccc2c(c1)CC1(C2)Cc2cc3c(cc2C1)CCCC3`, for which the TGI is 39.9 µM.
`Cc1c(C)c2c(c(N)c1C#N)C(=O)N(Cc1ccc(S(N)(=O)=O)cc1)C2=O`: the TGI is > 100 µM.
Same read-out and setting: for `COC(=O)/C=C/c1ccc(OP(=O)(O)O)c(OC)c1` the value was > 100 µM; for `Cc1cc(O)c(/C=N/C(N)=S)c(=O)o1`, > 100 µM; for `Cc1[nH]n(-c2nc3c(c(=O)[nH]2)CCCC3)c(=O)c1CCO`, > 100 µM.
Take `O=C(NCCN(CCNC(=O)c1cccc(O)c1O)CCNC(=O)c1cccc(O)c1O)c1cccc(O)c1O`: the TGI is > 100 µM.
Compound `COC(=O)/C=C(\C(=O)OC)c1cc(C)c2cc(C(C)C)ccc(C)c1-2` returned a TGI of 46.3 µM.
`O=c1c(-c2ccccc2)nnc2n(Cc3ccccc3)c3ccccc3n12`: the TGI was > 100 µM.
Regarding `Cc1cc2nc3c(C#N)c(-c4ccccc4)/c(=C\Nc4ccc(F)cc4)c(=O)n3c2cc1C`, the TGI was > 100 µM.
